For experiment [1], the system named is BTN2A−/− MIA PaCa-2 (BTN2A1/BTN2A2 KO) cells. Briefly: Cell killing assay with BTN2A−/− MIA PaCa-2 (BTN2A1/BTN2A2 KO) cells expressing BTN2A1/BTN2A2 variants. The conditions noted are these: cells expressing the BTN2A1 variant given as label; for Mean response (Fig. 6h, Dunnett test details): N = 6.
For the next experiment, the system named is MIA PaCa-2 cells. Briefly: Cell killing assay: cytotoxicity of Vγ9Vδ2 T cells towards pAg- or zoledronate-treated MIA PaCa-2 cells (luciferase). Conditions: Homo sapiens, MIA PaCa-2, Supplementary Table 4; read-out: EC50 (M) for MIA PaCa-2 cell lysis mediated by HMBPP analogs and Vγ9Vδ2 T cells. The class given is cell-based, human.
In experiment [2] the target is T1, preconditioned BTN2A1–BTN3A1 B30.2 complex (Homo sapiens, UniProt O00481+Q7KYR7).
T1 construct: The BTN3A1 B30.2 domain was expressed and purified as described previously; 6xHis; made in house; host or cells: Escherichia coli BL21 (DE3) for BTN2A1 B30.2
Briefly: ITC: pAg binding to the preconditioned BTN2A1 B30.2 and BTN3A1 B30.2 complex. Conditions: ITC; Supplementary Table 4; read-out: KD (M) for phosphoantigen binding to the pre-conditioned 2A1 B30.2 and 3A1 B30.2. As to the method:
ITC binding fits were calculated using MicroCal Analysis software.
For HMBPP binding to the preconditioned BTN2A1 B30.2 and BTN3A1 B30.2 complex, BTN2A1 B30.2 (20 µM) and BTN3A1 B30.2 (10 µM) were incubated in the buffer at a 2:1 ratio and loaded into the sample cell, and the injection syringe was filled with buffer containing 100 µM HMBPP.
For DMAPP/IPP binding to the preconditioned BTN2A1 B30.2 and BTN3A1 B30.2 complex, BTN2A1 B30.2 (200 µM) and BTN3A1 B30.2 (100 µM) were incubated in buffer at a 2:1 ratio and loaded into the sample cell, and the injection syringe was filled with buffer containing 1 mM DMAPP/IPP.
For other pAgs, their concentrations were adjusted to 500 µM, and BTN2A1 B30.2 and BTN3A1 B30.2 were adjusted to 100 µM and 50 µM at a 2:1 ratio.
A general note: In ITC the heat of successive injections is recorded.

Where “and” joins values, the source holds several entries; their conditions need not be identical. Identical values can stand only once.

Consider nine compounds from paper PMC10533412, “Phosphoantigens glue butyrophilin 3A1 and 2A1 to activate Vγ9Vδ2 T cells” (Nature, 2023).

The EC50 is the concentration needed to bring the measured effect to its halfway point. As usually defined, the Kd is a measure of binding affinity in units of concentration.

T1 sequence (O00481 322-513 limits assumed): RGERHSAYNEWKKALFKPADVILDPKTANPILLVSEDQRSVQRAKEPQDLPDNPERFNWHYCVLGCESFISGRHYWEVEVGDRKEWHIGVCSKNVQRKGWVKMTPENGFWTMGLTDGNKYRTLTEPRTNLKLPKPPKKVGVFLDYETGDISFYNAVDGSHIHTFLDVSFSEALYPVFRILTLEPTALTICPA
T1 sequence (Q7KYR7 316-527 limits assumed): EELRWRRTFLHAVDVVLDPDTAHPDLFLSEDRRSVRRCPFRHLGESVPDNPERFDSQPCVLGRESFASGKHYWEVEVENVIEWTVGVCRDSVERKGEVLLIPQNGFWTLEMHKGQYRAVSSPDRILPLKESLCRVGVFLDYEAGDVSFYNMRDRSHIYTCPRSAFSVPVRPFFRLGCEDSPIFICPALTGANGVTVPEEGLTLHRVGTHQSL
Protocol for MIA PaCa-2 cells: MIA PaCa-2 cells were infected with lentivirus bearing luciferase transgene. Luciferase-positive cells were plated at 5.0 × 10^3 cells per well in 384-well plates 1 day before transfection. All plasmids were transfected into BTN2A^−/− MIA PaCa-2 (BTN2A1/BTN2A2 KO) cells using Lipofectamine 2000 reagent. […] Stable-lite luciferase (Vazyme) was added to each well and the luciferase signal was immediately measured by using the PerkinElmer EnVision microplate reader.
Percentage of lysis was calculated using the following equation: percentage of specific lysis = (maximum luciferase − experimental luciferase)/maximum luciferase × 100.

For 2A1 WT, the “Mean response (Fig. 6h, Dunnett test details)” value in experiment [1] (Row 1 (-6.4)) is 1.143; in experiment [1] (Row 2 (-5.8)) it was 3.802; in experiment [1] (Row 3 (-5.2)), 14.85; in experiment [1] (Row 4 (-4.6)), 21.48; in experiment [1] (Row 5 (-4)), 24.98. The “Response, individual replicates (Fig. 6h source data)” value is 22.8101 and 22.1668 and 28.5464 and 27.6474 and 25.9163 and 22.7794 in experiment [1] (x = -4 (log concentration; stimulant and units not given)); 21.6162 and 22.5956 and 18.2653 and 23.7306 and 21.555 and 21.0967 in experiment [1] (x = -4.6 (log concentration; stimulant and units not given)); 14.9991 and 16.3572 and 11.8762 and 12.0557 and 14.1862 and 19.6027 in experiment [1] (x = -5.2 (log concentration; stimulant and units not given)); 3.9587 and 2.199 and 2.053 and 2.932 and 3.753 and 7.914 in experiment [1] (x = -5.8 (log concentration; stimulant and units not given)); 1.264 and 0.797 and 0.5929 and 0.7387 and 0.7679 and 2.697 in experiment [1] (x = -6.4 (log concentration; stimulant and units not given)).

For `CC/C(=C\COP(=O)(O)OP(=O)(O)O)CO` [Compound 4, (E)-4-hydroxy-3-ethyl-but-2-enyl diphosphate], the EC50 with MIA PaCa-2 cells is 4.5e-07 M. The Kd in experiment [2] was found to be 3.26e-07 M.

For `C=CC/C(=C\COP(=O)(O)OP(=O)(O)O)CO` [Compound 5, (E)-3-(hydroxymethyl)hexa-2,5-dienyl diphosphate], the EC50 in the experiment on MIA PaCa-2 cells was found to be 1.3e-08 M. In addition, the dissociation constant (Kd) in experiment [2] turned out to be 2.06e-07 M.

`C/C(=C\COP(=O)(O)OP(=O)(O)O)C(C)O` (centres unmarked) [Compound 6, (E)-4-hydroxy-3-methylpent-2-en-1-yl diphosphate]: the EC50 in the experiment on MIA PaCa-2 cells came to 1.8e-06 M. Further, in experiment [2], the dissociation constant (Kd) came to 1.69e-05 M.

Regarding `C/C(=C\COP(=O)(O)CP(=O)(O)O)CO` [Compound 7, (E)-((hydroxy((4-hydroxy-3-methylbut-2-en-1-yl)oxy)phosphoryl)methyl)phosphonic acid], in the experiment on MIA PaCa-2 cells, the EC50 worked out at 1.46e-06 M. The Kd in experiment [2] came to 4.62e-05 M.

In the case of `C/C(=C\COP(=O)(O)C(Cl)(Cl)P(=O)(O)O)CO` [Compound 8, (E)-(dichloro(hydroxy((4-hydroxy-3-methylbut-2-en-1yl)oxy)phosphoryl)methyl diphosphate], the EC50 with MIA PaCa-2 cells was found to be 9.28e-07 M. The Kd in experiment [2] amounted to 1.25e-05 M.

For the compound `C/C(=C\COP(=O)(O)C(Cl)P(=O)(O)O)CO` (centres unmarked) [Compound 9, (E)-(chloro(hydroxy((4-hydroxy-3-methylbut-2-en-1-yl)oxy)phosphoryl)methyl)phosphonic acid], the EC50 in the experiment on MIA PaCa-2 cells was determined as 3.5e-05 M. Further, the Kd in experiment [2] is 4.97e-05 M.

With `C/C(=C\COP(=O)(O)C(F)(F)P(=O)(O)O)CO` [Compound 10, (E)-(difluoro(hydroxy((4-hydroxy-3-methylbut-2-en-1-yl)oxy)phosphory)methyl)phosphonic acid], the EC50 with MIA PaCa-2 cells came to 5.33e-06 M. In experiment [2], the Kd was found to be 1.15e-05 M.

As for `C/C(=C\COP(=O)(O)C(F)P(=O)(O)O)CO` (centres unmarked) [Compound 11, (E)-(fluoro(hydroxy((4-hydroxy-3-methylbut-2-en-1-yl)oxy)phosphoryl)methyl)phosphonic acid], the EC50 with MIA PaCa-2 cells amounted to 8.71e-07 M. In addition, the Kd in experiment [2] came out at 2.81e-05 M.
